Active and inactive are the calls of the source.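 How the source made its calls: active means half-inhibitory concentration IC50 below 35 µM against dopamine receptor luciferase signal; inactive means the rest.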
The compounds below were run on HEK293 dopamine receptor CRE-luciferase, antagonist mode (assay: inhibition of dopamine-stimulated CRE-luciferase signal, dose response, counter-screen for LGR2 project, cell-based, HEK293, luminescence, dry powder (AID 743501)).
`C[C@H](CO)N1C[C@H](C)[C@H](CN(C)C(=O)Nc2ccccc2)OCCCC[C@H](C)Oc2ccc(NC(=O)C3CCCCC3)cc2C1=O` gave an IC50 of under 35 µM.
`C[C@H](CO)N1C[C@H](C)[C@H](CN(C)C(=O)Nc2ccc(F)cc2)OCCCC[C@H](C)Oc2ccc(NC(=O)C3CCCCC3)cc2C1=O` gave an IC50 of under 35 µM.
Work on `C[C@H](CO)N1C[C@H](C)[C@H](CN(C)C(=O)Nc2ccc3c(c2)OCO3)OCCCC[C@H](C)Oc2ccc(NC(=O)C3CCCCC3)cc2C1=O` yielded an IC50 of under 35 µM.
For `C[C@@H]1CCCCO[C@H](CN(C)C(=O)Nc2ccc(F)cc2)[C@H](C)CN([C@@H](C)CO)C(=O)c2cc(NC(=O)C3CCCCC3)ccc2O1`, the IC50 was > 35 µM (inactive).
In the case of `COc1ccc(NC(=O)N(C)C[C@@H]2OCCCC[C@H](C)Oc3ccc(NC(=O)C4CCCCC4)cc3C(=O)N([C@H](C)CO)C[C@@H]2C)cc1`, the IC50 is reported as > 35 µM (inactive).

Reference: PubChem BioAssay AID743501 (Broad Institute, 2014)
